Tested on: BxPC3 (pancreatic cancer)
Assay: ATP level assay (CellTiter-Glo), percent of control
Assay type: cell-based
Settings: Homo sapiens, BXPC-3, 2 h; compound alone, 100 uM, two hour incubation, control DMSO; read-out: POC (percent of control) BxPC3

| SMILES | activity at 100 µM |
| --- | --- |
| O=S(=O)(NCc1ccco1)c1ccc(Cl)cc1 [Compound 20, 4-chloro-N-(furan-2-ylmethyl)benzenesulfonamide] | 95.8% |

Same assay, conditions: compound 100 uM + 2DG (about 10-20 mM), two hour incubation

| SMILES | POC (percent of control) BxPC3 |
| --- | --- |
| O=S(=O)(NCc1ccco1)c1ccc(Cl)cc1 [Compound 20, 4-chloro-N-(furan-2-ylmethyl)benzenesulfonamide] | 86.4% of control |

Same assay, conditions: compound 100 uM + rotenone (approximately 1.25 μM), two hour incubation

| SMILES | POC (percent of control) BxPC3 |
| --- | --- |
| O=S(=O)(NCc1ccco1)c1ccc(Cl)cc1 [Compound 20, 4-chloro-N-(furan-2-ylmethyl)benzenesulfonamide] | 94.8% of control |

Tested on: H293 (kidney cancer)
Assay: as above
Assay type: cell-based
Settings: 2 h; compound alone, 100 uM, two hour incubation, control DMSO; read-out: POC (percent of control) H293

| SMILES | activity at 100 µM |
| --- | --- |
| O=S(=O)(NCc1ccco1)c1ccc(Cl)cc1 [Compound 20, 4-chloro-N-(furan-2-ylmethyl)benzenesulfonamide] | 104% |

Same assay, conditions: compound 100 uM + 2DG (about 10-20 mM), two hour incubation

| SMILES | POC (percent of control) H293 |
| --- | --- |
| O=S(=O)(NCc1ccco1)c1ccc(Cl)cc1 [Compound 20, 4-chloro-N-(furan-2-ylmethyl)benzenesulfonamide] | 84.4% of control |

Same assay, conditions: compound 100 uM + rotenone (approximately 1.25 μM), two hour incubation

| SMILES | POC (percent of control) H293 |
| --- | --- |
| O=S(=O)(NCc1ccco1)c1ccc(Cl)cc1 [Compound 20, 4-chloro-N-(furan-2-ylmethyl)benzenesulfonamide] | 69.4% of control |

Tested on: HDF (normal cells)
Assay: as above
Assay type: cell-based
Settings: 2 h; compound alone, 100 uM, two hour incubation, control DMSO; read-out: POC (percent of control) HDF

| SMILES | activity at 100 µM |
| --- | --- |
| O=S(=O)(NCc1ccco1)c1ccc(Cl)cc1 [Compound 20, 4-chloro-N-(furan-2-ylmethyl)benzenesulfonamide] | 90.9% |

Same assay, conditions: compound 100 uM + 2DG (about 10-20 mM), two hour incubation

| SMILES | POC (percent of control) HDF |
| --- | --- |
| O=S(=O)(NCc1ccco1)c1ccc(Cl)cc1 [Compound 20, 4-chloro-N-(furan-2-ylmethyl)benzenesulfonamide] | 88.1% of control |

Same assay, conditions: compound 100 uM + rotenone (approximately 1.25 μM), two hour incubation

| SMILES | POC (percent of control) HDF |
| --- | --- |
| O=S(=O)(NCc1ccco1)c1ccc(Cl)cc1 [Compound 20, 4-chloro-N-(furan-2-ylmethyl)benzenesulfonamide] | 103.1% of control |

Tested on: HeLa (cervical cancer)
Assay: as above
Assay type: cell-based
Settings: Homo sapiens, HeLa, 2 h; compound alone, 100 uM, two hour incubation, control DMSO; read-out: POC (percent of control) HeLa

| SMILES | activity at 100 µM |
| --- | --- |
| O=S(=O)(NCc1ccco1)c1ccc(Cl)cc1 [Compound 20, 4-chloro-N-(furan-2-ylmethyl)benzenesulfonamide] | 103% |

Same assay, conditions: compound 100 uM + 2DG (about 10-20 mM), two hour incubation

| SMILES | POC (percent of control) HeLa |
| --- | --- |
| O=S(=O)(NCc1ccco1)c1ccc(Cl)cc1 [Compound 20, 4-chloro-N-(furan-2-ylmethyl)benzenesulfonamide] | 91.7% of control |

Same assay, conditions: compound 100 uM + rotenone (approximately 1.25 μM), two hour incubation

| SMILES | POC (percent of control) HeLa |
| --- | --- |
| O=S(=O)(NCc1ccco1)c1ccc(Cl)cc1 [Compound 20, 4-chloro-N-(furan-2-ylmethyl)benzenesulfonamide] | 117.2% of control |

Tested on: MCF10A (non-cancerous breast)
Assay: as above
Assay type: cell-based
Settings: Homo sapiens, MCF-10A, 2 h; compound alone, 100 uM, two hour incubation, control DMSO; read-out: POC (percent of control) MCF10A

| SMILES | activity at 100 µM |
| --- | --- |
| O=S(=O)(NCc1ccco1)c1ccc(Cl)cc1 [Compound 20, 4-chloro-N-(furan-2-ylmethyl)benzenesulfonamide] | 102% |

Same assay, conditions: compound 100 uM + 2DG (about 10-20 mM), two hour incubation

| SMILES | POC (percent of control) MCF10A |
| --- | --- |
| O=S(=O)(NCc1ccco1)c1ccc(Cl)cc1 [Compound 20, 4-chloro-N-(furan-2-ylmethyl)benzenesulfonamide] | 78.1% of control |

Same assay, conditions: compound 100 uM + rotenone (approximately 1.25 μM), two hour incubation

| SMILES | POC (percent of control) MCF10A |
| --- | --- |
| O=S(=O)(NCc1ccco1)c1ccc(Cl)cc1 [Compound 20, 4-chloro-N-(furan-2-ylmethyl)benzenesulfonamide] | 102.9% of control |

Tested on: MCF7 (breast cancer)
Assay: as above
Assay type: cell-based
Settings: Homo sapiens, MCF7, 2 h; compound alone, 100 uM, two hour incubation, control DMSO; read-out: POC (percent of control) MCF7

| SMILES | activity at 100 µM |
| --- | --- |
| O=S(=O)(NCc1ccco1)c1ccc(Cl)cc1 [Compound 20, 4-chloro-N-(furan-2-ylmethyl)benzenesulfonamide] | 138% |

Same assay, conditions: compound 100 uM + 2DG (about 10-20 mM), two hour incubation

| SMILES | POC (percent of control) MCF7 |
| --- | --- |
| O=S(=O)(NCc1ccco1)c1ccc(Cl)cc1 [Compound 20, 4-chloro-N-(furan-2-ylmethyl)benzenesulfonamide] | 87.3% of control |

Same assay, conditions: compound 100 uM + rotenone (approximately 1.25 μM), two hour incubation

| SMILES | POC (percent of control) MCF7 |
| --- | --- |
| O=S(=O)(NCc1ccco1)c1ccc(Cl)cc1 [Compound 20, 4-chloro-N-(furan-2-ylmethyl)benzenesulfonamide] | 124.6% of control |

Tested on: MDA-MB (breast cancer)
Assay: as above
Assay type: cell-based
Settings: 2 h; compound alone, 100 uM, two hour incubation, control DMSO; read-out: POC (percent of control) MDA-MB

| SMILES | activity at 100 µM |
| --- | --- |
| O=S(=O)(NCc1ccco1)c1ccc(Cl)cc1 [Compound 20, 4-chloro-N-(furan-2-ylmethyl)benzenesulfonamide] | 97.4% |

Same assay, conditions: compound 100 uM + 2DG (about 10-20 mM), two hour incubation

| SMILES | POC (percent of control) MDA-MB |
| --- | --- |
| O=S(=O)(NCc1ccco1)c1ccc(Cl)cc1 [Compound 20, 4-chloro-N-(furan-2-ylmethyl)benzenesulfonamide] | 82.9% of control |

Same assay, conditions: compound 100 uM + rotenone (approximately 1.25 μM), two hour incubation

| SMILES | POC (percent of control) MDA-MB |
| --- | --- |
| O=S(=O)(NCc1ccco1)c1ccc(Cl)cc1 [Compound 20, 4-chloro-N-(furan-2-ylmethyl)benzenesulfonamide] | 98.5% of control |

Tested on: NCI-H196 (lung cancer)
Assay: as above
Assay type: cell-based
Settings: NCI-H196, 2 h; compound alone, 100 uM, two hour incubation, control DMSO; read-out: POC (percent of control) NCI-H196

| SMILES | activity at 100 µM |
| --- | --- |
| O=S(=O)(NCc1ccco1)c1ccc(Cl)cc1 [Compound 20, 4-chloro-N-(furan-2-ylmethyl)benzenesulfonamide] | 100% |

Same assay, conditions: compound 100 uM + 2DG (about 10-20 mM), two hour incubation

| SMILES | POC (percent of control) NCI-H196 |
| --- | --- |
| O=S(=O)(NCc1ccco1)c1ccc(Cl)cc1 [Compound 20, 4-chloro-N-(furan-2-ylmethyl)benzenesulfonamide] | 90.6% of control |

Same assay, conditions: compound 100 uM + rotenone (approximately 1.25 μM), two hour incubation

| SMILES | POC (percent of control) NCI-H196 |
| --- | --- |
| O=S(=O)(NCc1ccco1)c1ccc(Cl)cc1 [Compound 20, 4-chloro-N-(furan-2-ylmethyl)benzenesulfonamide] | 102.1% of control |

Tested on: PC3 (prostate cancer)
Assay: as above
Assay type: cell-based
Settings: 2 h; compound alone, 100 uM, two hour incubation, control DMSO; read-out: POC (percent of control) PC3

| SMILES | activity at 100 µM |
| --- | --- |
| O=S(=O)(NCc1ccco1)c1ccc(Cl)cc1 [Compound 20, 4-chloro-N-(furan-2-ylmethyl)benzenesulfonamide] | 91.1% |

Same assay, conditions: compound 100 uM + 2DG (about 10-20 mM), two hour incubation

| SMILES | POC (percent of control) PC3 |
| --- | --- |
| O=S(=O)(NCc1ccco1)c1ccc(Cl)cc1 [Compound 20, 4-chloro-N-(furan-2-ylmethyl)benzenesulfonamide] | 83.8% of control |

Same assay, conditions: compound 100 uM + rotenone (approximately 1.25 μM), two hour incubation

| SMILES | POC (percent of control) PC3 |
| --- | --- |
| O=S(=O)(NCc1ccco1)c1ccc(Cl)cc1 [Compound 20, 4-chloro-N-(furan-2-ylmethyl)benzenesulfonamide] | 100.4% of control |

Tested on: SkBr3 (breast cancer)
Assay: as above
Assay type: cell-based
Settings: Homo sapiens, SK-BR-3, 2 h; compound alone, 100 uM, two hour incubation, control DMSO; read-out: POC (percent of control) SkBr3

| SMILES | activity at 100 µM |
| --- | --- |
| O=S(=O)(NCc1ccco1)c1ccc(Cl)cc1 [Compound 20, 4-chloro-N-(furan-2-ylmethyl)benzenesulfonamide] | 104% |

Same assay, conditions: compound 100 uM + 2DG (about 10-20 mM), two hour incubation

| SMILES | POC (percent of control) SkBr3 |
| --- | --- |
| O=S(=O)(NCc1ccco1)c1ccc(Cl)cc1 [Compound 20, 4-chloro-N-(furan-2-ylmethyl)benzenesulfonamide] | 96.7% of control |

Same assay, conditions: compound 100 uM + rotenone (approximately 1.25 μM), two hour incubation

| SMILES | POC (percent of control) SkBr3 |
| --- | --- |
| O=S(=O)(NCc1ccco1)c1ccc(Cl)cc1 [Compound 20, 4-chloro-N-(furan-2-ylmethyl)benzenesulfonamide] | 102.5% of control |

Tested on: T47D (breast cancer)
Assay: as above
Assay type: cell-based
Settings: Homo sapiens, T47D, 2 h; compound alone, 100 uM, two hour incubation, control DMSO; read-out: POC (percent of control) T47D

| SMILES | activity at 100 µM |
| --- | --- |
| O=S(=O)(NCc1ccco1)c1ccc(Cl)cc1 [Compound 20, 4-chloro-N-(furan-2-ylmethyl)benzenesulfonamide] | 73.9% |

Same assay, conditions: compound 100 uM + 2DG (about 10-20 mM), two hour incubation

| SMILES | POC (percent of control) T47D |
| --- | --- |
| O=S(=O)(NCc1ccco1)c1ccc(Cl)cc1 [Compound 20, 4-chloro-N-(furan-2-ylmethyl)benzenesulfonamide] | 69.7% of control |

Same assay, conditions: compound 100 uM + rotenone (approximately 1.25 μM), two hour incubation

| SMILES | POC (percent of control) T47D |
| --- | --- |
| O=S(=O)(NCc1ccco1)c1ccc(Cl)cc1 [Compound 20, 4-chloro-N-(furan-2-ylmethyl)benzenesulfonamide] | 101.6% of control |
